The values that follow come from article PMC2705655, “The Nicotinic Acetylcholine Receptors of the Parasitic Nematode Ascaris suum: Formation of Two Distinct Drug Targets by Varying the Relative Expression Levels of Two Subunits” (PLoS Pathogens, 2009).

Experiment in all cases: two-electrode voltage clamp, Xenopus oocytes
Common to all, as to format: cell-based
(In general: Two-electrode voltage clamp is typically applied to oocytes expressing channels or transporters.)

Experiment [1] deals with T1, 5:1 Asu-unc-38:Asu-unc-29 receptor, putative (Asu-UNC-38)3(Asu-UNC-29)2, N-subtype nAChR (Ascaris suum, UniProt A7UFK6+A9XWS2).
T1 construct: full-length cDNAs of both subunits in pT7TS, cRNAs co-injected 5:1 into Xenopus oocytes; no tag
T1 sequence (A7UFK6 22-513): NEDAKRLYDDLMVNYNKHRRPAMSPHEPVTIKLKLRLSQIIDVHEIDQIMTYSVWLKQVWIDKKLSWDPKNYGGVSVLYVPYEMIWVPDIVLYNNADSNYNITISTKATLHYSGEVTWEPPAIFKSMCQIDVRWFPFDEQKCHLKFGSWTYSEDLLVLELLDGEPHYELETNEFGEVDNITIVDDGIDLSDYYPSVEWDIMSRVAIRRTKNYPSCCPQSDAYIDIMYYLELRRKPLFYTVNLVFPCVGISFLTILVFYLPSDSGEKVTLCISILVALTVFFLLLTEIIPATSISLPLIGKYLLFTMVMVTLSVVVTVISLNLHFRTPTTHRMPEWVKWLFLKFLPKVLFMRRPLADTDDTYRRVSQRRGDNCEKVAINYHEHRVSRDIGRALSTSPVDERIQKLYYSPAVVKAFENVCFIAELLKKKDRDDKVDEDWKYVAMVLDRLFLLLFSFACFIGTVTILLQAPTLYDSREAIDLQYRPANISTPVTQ
T1 sequence (A9XWS2 27-513): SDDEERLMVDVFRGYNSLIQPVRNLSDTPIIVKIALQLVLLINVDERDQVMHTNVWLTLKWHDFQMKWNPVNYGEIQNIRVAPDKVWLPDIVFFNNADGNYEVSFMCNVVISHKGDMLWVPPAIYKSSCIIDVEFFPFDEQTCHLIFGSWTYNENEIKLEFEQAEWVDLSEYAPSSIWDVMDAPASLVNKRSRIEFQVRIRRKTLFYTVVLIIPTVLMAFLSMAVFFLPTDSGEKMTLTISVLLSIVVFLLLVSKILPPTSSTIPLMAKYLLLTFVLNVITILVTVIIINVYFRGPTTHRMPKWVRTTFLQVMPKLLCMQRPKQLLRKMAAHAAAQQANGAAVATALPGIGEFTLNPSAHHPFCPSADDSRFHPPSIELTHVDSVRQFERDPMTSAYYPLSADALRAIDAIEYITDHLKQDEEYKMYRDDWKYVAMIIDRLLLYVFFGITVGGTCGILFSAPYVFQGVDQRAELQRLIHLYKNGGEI
The source says: two-electrode voltage clamp, Xenopus oocytes on 5:1 Asu-unc-38:Asu-unc-29 receptor, putative (Asu-UNC-38)3(Asu-UNC-29)2, N-subtype nAChR

The target of experiment [2] is T2, 1:5 Asu-unc-38:Asu-unc-29 receptor, putative (Asu-UNC-38)2(Asu-UNC-29)3, L-subtype nAChR (Ascaris suum, UniProt A7UFK6+A9XWS2).
T2 construct: full-length cDNAs of both subunits in pT7TS, cRNAs co-injected 1:5 into Xenopus oocytes; no tag
T2 sequence (A7UFK6 22-513): T1 sequence (A7UFK6 22-513)
T2 sequence (A9XWS2 27-513): T1 sequence (A9XWS2 27-513)
Conditions: -60 mV; cRNA ratio 1:5; response too small to quantify.

Experiment [3] addresses T2, 1:5 Asu-unc-38:Asu-unc-29 receptor, putative (Asu-UNC-38)2(Asu-UNC-29)3, L-subtype nAChR. The source says:
two-electrode voltage clamp, Xenopus oocytes on 1:5 Asu-unc-38:Asu-unc-29 receptor, putative (Asu-UNC-38)2(Asu-UNC-29)3, L-subtype nAChR

Experiment [4] deals with T1, 5:1 Asu-unc-38:Asu-unc-29 receptor, putative (Asu-UNC-38)3(Asu-UNC-29)2, N-subtype nAChR. Particulars: -60 mV; cRNA ratio 5:1; response too small to quantify.

Usually EC50 stands for the concentration that produces a half-maximal response. A high value points to weaker potency. In experiment [1], `CN1CCCN=C1/C=C/c1cccc(O)c1` [oxantel] showed an EC50 of 4070 nM. Besides, the “two-electrode voltage clamp, Xenopus oocytes” value in experiment [2] is reported as “but gave a negligible response to oxantel”.

In the case of `CN1CCCN=C1/C=C/c1cccs1` [pyrantel], the EC50 in experiment [3] was 398 nM. Besides, the “two-electrode voltage clamp, Xenopus oocytes” value in experiment [4] is on record as “but gave very little response to pyrantel”.
